We go through 31 compounds from PubChem BioAssay (NCI).

Test systems include MCF7 breast; MDA-MB-435; PC-3 prostate.
What all share (experiment): growth of human tumour cells (NCI), 48 h

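Interpolation was linear, between the two tested concentrations surrounding the appropriate level; five concentrations were tested over 48 hours in 96-well plates. GI50 marks 50% less growth. The concentration for full growth arrest is given as TGI.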

With `COc1ccc2c(c1)O/C(=C\c1cccc(OCC(=O)Nc3nc(C)c(C)s3)c1)C2=O`, the GI50 in the assay with MCF7 breast was 3.17 µM; in the assay on MDA-MB-435, 7.29 µM; with PC-3 prostate, 0.821 µM. In addition, the figures for the TGI with MCF7 breast and in the assay on MDA-MB-435 were 50.1 µM and more than 100 µM, respectively.
For `COc1cccc(NC(=O)c2sc3nc4c(cc3c2N)C(O)CCC4)c1` (stereo not drawn), in the assay with MCF7 breast, the GI50 is 0.0523 µM and the TGI was more than 100 µM. In the assay with PC-3 prostate, the GI50 is 0.23 µM and the TGI was more than 100 µM.
`CCN(CC)c1ccc2nc3ccc(N=Nc4ccc(O)cc4)cc3[n+](-c3ccccc3)c2c1`: in the assay on MCF7 breast, the GI50 is 1.9 µM and the TGI was 5.11 µM.
Regarding `COc1cc(-c2cc3ncccc3c3[nH]c(=O)c4cccnc4c23)cc(OC)c1OC`, the GI50 was 0.394 µM with MCF7 breast, 0.181 µM in the assay with MDA-MB-435 and 0.858 µM with PC-3 prostate. In addition, the TGI in the assay with MCF7 breast, with MDA-MB-435 and with PC-3 prostate was more than 100 µM in each case.
Take `Cc1nc(Sc2nc3ccc([N+](=O)[O-])cc3s2)sc1C`: the GI50 in the assay on MCF7 breast was 0.705 µM; in the assay on MDA-MB-435, 1.78 µM; in the assay with PC-3 prostate, 1.15 µM. The TGI in the assay with MCF7 breast amounted to 10.1 µM; with MDA-MB-435 it was 11.1 µM; with PC-3 prostate, 7.63 µM.
Regarding `O=C1Nc2ccccc2/C1=C/c1cn(CC(O)Cn2cc(/C=C3\C(=O)Nc4ccccc43)c3ccccc32)c2ccccc12` (stereo not drawn), in the assay on MDA-MB-435, the GI50 was 1.81 µM and the TGI came to 3.46 µM. Moreover, in the assay with PC-3 prostate, the GI50 was 1.21 µM and the TGI was found to be 2.66 µM.
Turning to `O=C(Nc1ccc2c(c1)OCCO2)C(=O)c1c[nH]c2ccccc12`, the GI50 was 1.31 µM in the assay on MCF7 breast, 0.166 µM in the assay with MDA-MB-435 and 2.17 µM in the assay with PC-3 prostate. The TGI was more than 100 µM with MCF7 breast, 0.531 µM with MDA-MB-435 and more than 100 µM with PC-3 prostate.
As to `COc1cc(CN(c2ccc(C)cc2)C2OC(=O)c3ccccc32)cc(OC)c1OC` (stereo not drawn), the GI50 with MCF7 breast is 0.339 µM; with PC-3 prostate it was 0.432 µM. Besides, the TGI in the assay with MCF7 breast and in the assay on PC-3 prostate was more than 100 µM in each case.
As to `COc1cc(-c2nccc3cc4c(cc23)OCO4)cc(OC)c1OC`, the GI50 is 2.88 µM in the assay with MCF7 breast, 0.411 µM with MDA-MB-435 and 4.25 µM with PC-3 prostate. In addition, the results for the TGI in the assay on MCF7 breast, in the assay on MDA-MB-435 and in the assay on PC-3 prostate were more than 100 µM, 3.55 µM and more than 100 µM, respectively.
Consider `COc1ccc(-c2nn3ncccc3c2-c2ccnc(Nc3ccc4c(c3)OCCO4)n2)cc1`, for which the GI50 was 13.8 µM in the assay with MCF7 breast, 12.5 µM in the assay on MDA-MB-435 and 9.12 µM in the assay with PC-3 prostate. The TGI in the assay on MCF7 breast, in the assay with MDA-MB-435 and with PC-3 prostate was more than 25 µM in each case.
With `CCc1nn2ncccc2c1-c1ccnc(NC2CC2)n1`, the GI50 with MCF7 breast, in the assay with MDA-MB-435 and in the assay on PC-3 prostate was more than 25 µM throughout. For the same compound, the TGI in the assay with MCF7 breast, in the assay on MDA-MB-435 and in the assay on PC-3 prostate was more than 25 µM each time.
For `O=C(Oc1ccccc1)C(Br)C(Br)c1ccccc1` (stereo not drawn), the values for the GI50 in the assay with MCF7 breast, with MDA-MB-435 and in the assay with PC-3 prostate were 1.68 µM, 1.62 µM and 14.9 µM, respectively. For the same compound, the TGI with MCF7 breast turned out to be 11.4 µM; in the assay on MDA-MB-435, 3.09 µM; with PC-3 prostate, 30.1 µM.
Turning to `C=C(CN1c2ccccc2Sc2ccccc21)c1ccc(C(=O)Nc2ccccc2N)cc1`, the results for the GI50 with MCF7 breast, in the assay on MDA-MB-435 and with PC-3 prostate were more than 42 µM, 3.87 µM and 5.07 µM, respectively. In addition, the TGI is more than 100 µM in the assay on MCF7 breast, 25 µM with MDA-MB-435 and more than 100 µM with PC-3 prostate.
`COc1cc2nc(-c3cccc4cccnc34)nc(NC3CCN(Cc4ccccc4)CC3)c2cc1OC`: in the assay on MDA-MB-435, the GI50 is 1.56 µM and the TGI is 3.08 µM. For the same compound, in the assay with PC-3 prostate, the GI50 was 1.36 µM and the TGI was found to be 2.83 µM.
With `COc1ccc(-c2nsc3c2NC(=O)CC3c2cccc(Cl)c2)cc1` (stereo not drawn), the GI50 with MCF7 breast was 0.809 µM; with MDA-MB-435 it was 0.226 µM; with PC-3 prostate it was 2.12 µM. Further, the TGI in the assay with MCF7 breast is more than 100 µM; in the assay with MDA-MB-435 it was 0.917 µM; with PC-3 prostate, more than 100 µM.
As to `CC1=C(C#N)C(/C=C(\Cl)c2ccc(F)cc2)C(C#N)=C(C)N1`, the GI50 in the assay on MCF7 breast, in the assay on MDA-MB-435 and with PC-3 prostate was more than 100 µM throughout. In addition, the TGI in the assay on MCF7 breast, in the assay on MDA-MB-435 and with PC-3 prostate was more than 100 µM in each case.
With `Nc1nc2c(ccc3ccccc32)s1`, the values for the GI50 in the assay with MCF7 breast, in the assay on MDA-MB-435 and with PC-3 prostate were 78.7 µM, 57.1 µM and 33.7 µM, respectively. Moreover, the TGI in the assay with MCF7 breast, in the assay with MDA-MB-435 and with PC-3 prostate was more than 100 µM each time.
`COc1ccc(-c2nc(N)c(C#N)c3c2CCOc2c-3ccc3ccccc23)cc1`: the GI50 in the assay with MCF7 breast is 20.2 µM; in the assay with MDA-MB-435, 46.6 µM; with PC-3 prostate it was 22 µM. The TGI in the assay with MCF7 breast, with MDA-MB-435 and in the assay with PC-3 prostate was more than 100 µM throughout.
Consider `Cc1noc(C)c1-c1cnc2c(-c3ccc(C(=O)O)cc3)cn([C@@H](C)c3ccccn3)c2c1`, for which the results for the GI50 with MCF7 breast, with MDA-MB-435 and with PC-3 prostate were 0.186 µM, 0.603 µM and 3.28 µM, respectively. For the same compound, the TGI with MCF7 breast, in the assay on MDA-MB-435 and in the assay on PC-3 prostate was more than 100 µM each time.
For `CC(C)(C)c1nc(-c2cccc(NS(=O)(=O)c3c(F)cccc3F)c2F)c(-c2ccnc(N)n2)s1`, the GI50 in the assay with MCF7 breast is 27.3 µM; with MDA-MB-435 it was less than 0.01 µM; with PC-3 prostate it was 41.3 µM. In addition, the TGI with MCF7 breast, in the assay with MDA-MB-435 and in the assay on PC-3 prostate was more than 100 µM each time.
With `O=C(O)Cn1ccc2ccccc21`, the GI50 in the assay with MCF7 breast, in the assay with MDA-MB-435 and in the assay with PC-3 prostate was more than 100 µM in each case. For the same compound, the TGI with MCF7 breast, in the assay on MDA-MB-435 and in the assay on PC-3 prostate was more than 100 µM in each case.
For `Cc1c(C)c2c(c(C)c1OCC(=O)O)CC[C@@](C)(CCC[C@@H](C)CCC[C@@H](C)CCCC(C)C)O2`, the GI50 in the assay on MCF7 breast is 74.6 µM; in the assay with MDA-MB-435 it was 72.6 µM; in the assay with PC-3 prostate, 34.9 µM. Further, the TGI in the assay with MCF7 breast was 199 µM; in the assay on MDA-MB-435, 142 µM; in the assay on PC-3 prostate, 106 µM.
With `O=C(/C=C\n1cnc(-c2cc(C(F)(F)F)cc(C(F)(F)F)c2)n1)N1CC(F)(F)C1`, the values for the GI50 in the assay with MCF7 breast, in the assay on MDA-MB-435 and in the assay with PC-3 prostate were 0.212 µM, 1.4 µM and 0.277 µM, respectively. For the same compound, the TGI was 1.64 µM in the assay on MCF7 breast, 6.38 µM in the assay with MDA-MB-435 and 4.54 µM in the assay with PC-3 prostate.
For `CN1CCN(CCCOc2cccc3nc(Nc4ccc(F)c(F)c4)ccc23)CC1`, the GI50 with MCF7 breast was 3.33 µM; with MDA-MB-435, 1.27 µM; with PC-3 prostate, 3.83 µM. In addition, the values for the TGI in the assay on MCF7 breast, in the assay with MDA-MB-435 and in the assay on PC-3 prostate were 7.88 µM, 5.14 µM and 8.43 µM, respectively.
Consider `CCCCN1C(=O)/C(=c2\sc3n(c2=O)C2C(NN=3)N(CC)C(=O)N2CC)c2ccccc21` (stereo not drawn), for which, in the assay on MDA-MB-435, the GI50 is 0.255 µM and the TGI is 0.655 µM.
For `CC(=O)O[C@H](C[C@H](C(C)C)N(C)C(=O)[C@@H](NC(=O)[C@H]1CCCCN1C)C(C)C)c1cccc(C(=O)N[C@@H](Cc2ccccc2)C[C@H](C)C(=O)O)n1`, in the assay with MCF7 breast, the GI50 was 0.00992 µM and the TGI was more than 25 µM. Besides, in the assay on PC-3 prostate, the GI50 was 0.0321 µM and the TGI is more than 25 µM.
For the compound `C[C@H](NC(=O)c1c(C(F)F)nn(C)c1Oc1cccc(C(F)(F)F)c1)c1ccc(C(=O)O)cc1`, the GI50 in the assay on MCF7 breast, with MDA-MB-435 and in the assay on PC-3 prostate was more than 100 µM each time. Besides, the TGI with MCF7 breast, in the assay with MDA-MB-435 and with PC-3 prostate was more than 100 µM each time.
With `CCOC(=O)C#Cc1c(C(=O)OCC)nnn1[C@@H]1O[C@H](CO)[C@H]2OC3(CCCCC3)O[C@H]21`, the values for the GI50 with MCF7 breast, with MDA-MB-435 and with PC-3 prostate were 2.11 µM, 4.49 µM and 13.5 µM, respectively. The TGI with MCF7 breast was 6.56 µM; with MDA-MB-435 it was 16 µM; in the assay with PC-3 prostate, 26.8 µM.
Turning to `CCOc1ccc(C(C)=O)cc1NC(=O)c1cccc(-c2nnn(CC)n2)c1`, the GI50 is 0.333 µM with MCF7 breast, 0.308 µM in the assay on MDA-MB-435 and 0.481 µM in the assay with PC-3 prostate. For the same compound, the TGI was more than 100 µM with MCF7 breast, 2.34 µM in the assay on MDA-MB-435 and more than 100 µM with PC-3 prostate.
`Cc1cn2c(/C=N/N=C(N)N)c(-c3ccncc3)nc2s1`: the GI50 with MDA-MB-435 is 17.2 µM; in the assay on PC-3 prostate it was 18.8 µM. The results for the TGI with MDA-MB-435 and with PC-3 prostate were 33.8 µM and 32.8 µM, respectively.
As for `COc1cc(NC(C)CCCNC(C)C)c2ncccc2c1OC` (stereo not drawn), the GI50 in the assay with MCF7 breast is 29.6 µM; in the assay with MDA-MB-435, 54.6 µM. Also, the TGI with MCF7 breast and in the assay on MDA-MB-435 was more than 100 µM in each case.
